The source of these data is patent US9789099B2, “Cosmetic or dermatological preparation for prophylaxis and/or treatment of atopic dermatitis” (Beiersdorf AG, priority 2012, dated 2017).

Holding throughout (format): in vivo, human
The subject of experiment [1] is patients with atopic dermatitis of mild to moderate severity. The experiment is described as follows: Randomized, blind, controlled two-armed study: dermatologist-assessed clinical severity (local SCORAD, erythema).
From the text: Using a randomized, blind (participant), controlled, two-armed study design, it was the aim to evaluate the cortisone saving potential and the non-inferiority of the test sample during an application twice daily lasting for four weeks compared to the once-weekly treatment with 1% hydrocortisone (HC), followed by an application of the test sample for a further three weeks. The study results were based on an assessment, controlled by the dermatologist, of the degree of severity of the clinical size of atopic dermatitis, the colonization of the skin lesions with S. aureus, biotechnological measurement of parameters of the epidermal barrier function, as well as the itching intensity in the test area.
Experiment [2] concerns S. aureus. The experiment is described as follows: Same study: colonization of the skin lesions with S. aureus. The following applies: topical; same two-arm design. From the text: (§1) Using a randomized, blind (participant), controlled, two-armed study design, it was the aim to evaluate the cortisone saving potential and the non-inferiority of the test sample during an application twice daily lasting for four weeks compared to the […] treatment with 1% hydrocortisone (HC), followed by an application of the test sample for a further three weeks. The study results were based on an assessment, controlled by the dermatologist, of the degree of severity of the clinical size of atopic dermatitis, the colonization of the skin lesions with S. aureus, biotechnological measurement of parameters of the epidermal barrier function, as well as the itching intensity in the test area.

Experiment [3] has as its system lesional skin of patients with atopic dermatitis. The experiment is described as follows: Same study: parameters of the epidermal barrier function (TEWL, skin moisture) on lesional skin.
From the text: as §1

With `C[C@]12CCC(=O)C=C1CC[C@@H]1[C@@H]2[C@@H](O)C[C@@]2(C)[C@H]1CC[C@]2(O)C(=O)CO` [1% hydrocortisone, hydrocortisone], in experiment [1] (topical, same two-arm design), the erythema result is listed as “significant reduction”. Besides, the “local SCORAD” value in experiment [1] (topical, test sample twice daily for four weeks vs 1% HC for first week followed by test sample for three weeks) is on record as “significant reduction”. Also, in experiment [1] (within the first study week, differences between arms not significant apart from TEWL on day 7), the “changes in local SCORAD, erythema, TEWL and S. aureus colonization relative to the other arm” value was “greater changes”. Moreover, in experiment [2], the “colonization of skin lesions with S. aureus” value is “significant reduction”. In addition, in experiment [3] (application in the first study week), the “skin moisture of lesional skin” value is recorded as “only slightly”. For the same molecule, in experiment [3] (topical, same two-arm design), the “lesional skin TEWL (transepidermal water loss)” value is “significant reduction”.
